Literature values in patent US20230285259A1, “METHOD FOR DYEING KERATINOUS MATERIAL, COMPRISING THE USE OF AN ORGANOSILICON COMPOUND, A DERIVATIVE OF ALKYLATED SILANOL, A COLORING COMPOUND AND A POST-TREATMENT AGENT” (Henkel AG & Co. KGaA, priority 2020, published 2023).

Settings: 25° C.

Structure (SMILES) | solubility in water | solubility in water (in words)
CCN(Cc1cccc(S(=O)(=O)O)c1)c1ccc(C(=C2C=CC(=[N+](CC)Cc3cccc(S(=O)(=O)O)c3)C=C2)c2ccccc2S(=O)(=O)[O-])cc1 [Acid Blue 9] | more than 20 wt. % | –
O=S(=O)(O)c1ccc(N=Nc2c(O)ccc3ccccc23)cc1 [Acid Orange 7, 4-[(2-hydroxy-1-naphthyl)azo]benzene sulphonate] | more than 7 g/L | –
O=[N+]([O-])c1cc([N+](=O)[O-])c2ccc(S(=O)(=O)O)cc2c1O [Acid Yellow 9, 8-hydroxy-5,7-dinitro-2-naphthalenesulfonic acid] | above 40 g/L | –
O=C(O)C1=NN(c2ccc(S(=O)(=O)O)cc2)C(=O)C1N=Nc1ccc(S(=O)(=O)O)cc1 (stereo not shown) [Acid Yellow 23, 4,5-dihydro-5-oxo-1-(4-sulfophenyl)-4-((4-sulfophenyl)azo)-1H-pyrazole-3-carboxylic acid] | – | highly soluble
